Where two headings read alike, the source gives them in different places.
Legend:
Assay type in all cases: biochemical
[1] = molecular target: T1, PrkA kinase domain; PrkA(1-338) (Listeria monocytogenes, UniProt A0A0H3GI69); test: Kinase-Glo ATP depletion assay
T1 construct: gene LMRG_00967; cytosolic kinase domain, residues 1-338, pGEX-2T GST fusion from E. coli Rosetta BL21, GST cut off with thrombin
From the text: Kinase-Glo ATP depletion assay on PrkA kinase domain; PrkA(1-338)

Stk1 kinase domain [2] = molecular target: T2, Stk1 kinase domain (Staphylococcus aureus, UniProt A0A0H2XGG5); test: Kinase-Glo ATP depletion assay
T2 construct: gene pknB; cytosolic kinase domain, residues 1-348, pGEX-2T GST fusion from E. coli Rosetta BL21, GST cut off with thrombin; Mn2+ in place of Mg2+

Stk1 kinase domain [3] = molecular target: T2, Stk1 kinase domain; test: kinase inhibition assay (supplement)
[4] = read-out: Relative IC50 (95% CI)

T1 sequence (A0A0H3GI69 entry or part of it): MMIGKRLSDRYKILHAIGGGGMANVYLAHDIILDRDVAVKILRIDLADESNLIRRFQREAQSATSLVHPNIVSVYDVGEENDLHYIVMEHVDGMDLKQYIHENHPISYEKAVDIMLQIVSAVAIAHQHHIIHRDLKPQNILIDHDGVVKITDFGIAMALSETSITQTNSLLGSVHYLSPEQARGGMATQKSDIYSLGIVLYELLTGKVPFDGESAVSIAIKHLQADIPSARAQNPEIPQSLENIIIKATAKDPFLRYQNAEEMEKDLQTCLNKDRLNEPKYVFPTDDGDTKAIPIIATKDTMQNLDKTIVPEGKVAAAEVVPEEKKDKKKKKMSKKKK
T2 sequence (A0A0H2XGG5 entry or part of it): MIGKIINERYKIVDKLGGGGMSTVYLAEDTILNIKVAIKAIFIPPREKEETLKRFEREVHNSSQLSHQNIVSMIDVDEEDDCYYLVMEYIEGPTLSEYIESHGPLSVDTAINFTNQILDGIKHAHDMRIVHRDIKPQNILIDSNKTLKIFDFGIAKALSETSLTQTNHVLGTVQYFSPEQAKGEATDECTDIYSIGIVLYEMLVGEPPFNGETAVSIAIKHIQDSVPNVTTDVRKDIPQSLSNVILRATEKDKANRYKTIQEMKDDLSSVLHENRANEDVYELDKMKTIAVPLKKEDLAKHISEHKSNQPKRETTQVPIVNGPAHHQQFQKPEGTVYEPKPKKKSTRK

Row | SMILES | IC50 [1, 4] | further results
1 | CCn1c(-c2nonc2N)nc2c(C#CC(C)(C)O)ncc(OCC3CCNCC3)c21 [GSK554170A] | 450 nM | –
2 | CCn1c(-c2nonc2N)nc2c(C#CC(C)(C)O)ncc(OC[C@@H]3CCCN3)c21 [GSK614526A] | – | IC50 [1]: 420 nM
3 | CCn1c(-c2nonc2N)nc2c(C#CC(C)(C)O)ncc(OC[C@H]3CCCNC3)c21 [GSK690693] | 840 nM | IC50 (Stk1 kinase domain [2]): > 40000 nM
4 | CCn1c(-c2nonc2N)nc2c(C#CC(C)(C)O)nc(OCCN)cc21 [GSK902056A] | 410 nM | –
5 | O=C1Nc2ccccc2C1=C1Nc2ccccc2C1=NO [indirubin-3′-monoxime] | – | kinase inhibition assay (supplement) (Stk1 kinase domain [3]): Stk1 can be biochemically inhibited by the kinase inhibitor indirubin-3′-monoxime

From paper PMC5641865, “A screen for kinase inhibitors identifies antimicrobial imidazopyridine aminofurazans as specific inhibitors of the Listeria monocytogenes PASTA kinase PrkA” (The Journal of Biological Chemistry, 2017)
